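Grown in 96-well plates, cells were treated for 48 hours with each compound at five concentrations. Insufficient inhibition: endpoint recorded as highest concentration tested. TGI: total growth inhibition.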
Tests used:
Assay in all cases: NCI anticancer screen, dose series, 48 h
RPMI-8226 leukemia = test system: RPMI-8226 leukemia
NCI-H23 lung = test system: NCI-H23 lung
UACC-257 melanoma = test system: UACC-257 melanoma
SF-268 CNS = test system: SF-268 CNS
OVCAR-4 ovarian = test system: OVCAR-4 ovarian
HCT-116 colon = test system: HCT-116 colon
UO-31 renal = test system: UO-31 renal
SK-MEL-5 melanoma = test system: SK-MEL-5 melanoma
OVCAR-3 ovarian = test system: OVCAR-3 ovarian
HCC-2998 colon = test system: HCC-2998 colon
DU-145 prostate = test system: DU-145 prostate
UACC-62 melanoma = test system: UACC-62 melanoma
MDA-N = test system: MDA-N
RXF 393 renal = test system: RXF 393 renal
SW-620 colon = test system: SW-620 colon
SF-539 CNS = test system: SF-539 CNS
NCI-H460 lung = test system: NCI-H460 lung
MDA-MB-231 breast = test system: MDA-MB-231 breast
OVCAR-5 ovarian = test system: OVCAR-5 ovarian
HOP-92 NSCLC = test system: HOP-92 NSCLC
NCI/ADR-RES ovarian = test system: NCI/ADR-RES ovarian
HT29 colon = test system: HT29 colon
BT-549 breast = test system: BT-549 breast
M14 melanoma = test system: M14 melanoma
NCI-H226 lung = test system: NCI-H226 lung
EKVX NSCLC = test system: EKVX NSCLC
TK-10 renal = test system: TK-10 renal
786-0 renal = test system: 786-0 renal
COLO 205 colon = test system: COLO 205 colon
OVCAR-8 ovarian = test system: OVCAR-8 ovarian
LOX IMVI melanoma = test system: LOX IMVI melanoma
CAKI-1 renal = test system: CAKI-1 renal
SNB-75 CNS = test system: SNB-75 CNS
SK-OV-3 ovarian = test system: SK-OV-3 ovarian
NCI-H522 lung = test system: NCI-H522 lung
U251 CNS = test system: U251 CNS
SN12C renal = test system: SN12C renal
MDA-MB-435 = test system: MDA-MB-435
HCT-15 colon = test system: HCT-15 colon
PC-3 prostate = test system: PC-3 prostate
SNB-19 CNS = test system: SNB-19 CNS
A549 NSCLC = test system: A549 NSCLC
T-47D breast = test system: T-47D breast
IGROV1 ovarian = test system: IGROV1 ovarian
SF-295 CNS = test system: SF-295 CNS
ACHN renal = test system: ACHN renal
SK-MEL-28 melanoma = test system: SK-MEL-28 melanoma
K-562 leukemia = test system: K-562 leukemia
HOP-62 NSCLC = test system: HOP-62 NSCLC
MOLT-4 leukemia = test system: MOLT-4 leukemia
A498 renal = test system: A498 renal
KM12 colon = test system: KM12 colon
MCF7 breast = test system: MCF7 breast
SK-MEL-2 melanoma = test system: SK-MEL-2 melanoma
HS 578T breast = test system: HS 578T breast
CCRF-CEM leukemia = test system: CCRF-CEM leukemia
MALME-3M melanoma = test system: MALME-3M melanoma
HL-60(TB) leukemia = test system: HL-60(TB) leukemia

Structure (SMILES): Clc1ccc(N=C2c3ccccc3CN2c2ccc(Cl)cc2)cc1
- TGI (RPMI-8226 leukemia): > 100 µM
- TGI (NCI-H23 lung): > 100 µM
- TGI (UACC-257 melanoma): > 100 µM
- TGI (SF-268 CNS): > 100 µM
- TGI (OVCAR-4 ovarian): > 100 µM
- TGI (HCT-116 colon): > 100 µM
- TGI (UO-31 renal): > 100 µM
- TGI (SK-MEL-5 melanoma): > 100 µM
- TGI (OVCAR-3 ovarian): > 100 µM
- TGI (HCC-2998 colon): > 100 µM
- TGI (DU-145 prostate): > 100 µM
- TGI (UACC-62 melanoma): > 100 µM
- TGI (MDA-N): > 100 µM
- TGI (RXF 393 renal): > 100 µM
- TGI (SW-620 colon): > 100 µM
- TGI (SF-539 CNS): > 100 µM
- TGI (NCI-H460 lung): > 100 µM
- TGI (MDA-MB-231 breast): > 100 µM
- TGI (OVCAR-5 ovarian): > 100 µM
- TGI (HOP-92 NSCLC): > 100 µM
- TGI (NCI/ADR-RES ovarian): > 100 µM
- TGI (HT29 colon): > 100 µM
- TGI (BT-549 breast): > 100 µM
- TGI (M14 melanoma): > 100 µM
- TGI (NCI-H226 lung): > 100 µM
- TGI (EKVX NSCLC): > 100 µM
- TGI (TK-10 renal): > 100 µM
- TGI (786-0 renal): > 100 µM
- TGI (COLO 205 colon): > 100 µM
- TGI (OVCAR-8 ovarian): > 100 µM
- TGI (LOX IMVI melanoma): > 100 µM
- TGI (CAKI-1 renal): > 100 µM
- TGI (SNB-75 CNS): > 100 µM
- TGI (SK-OV-3 ovarian): > 100 µM
- TGI (NCI-H522 lung): > 100 µM
- TGI (U251 CNS): > 100 µM
- TGI (SN12C renal): > 100 µM
- TGI (MDA-MB-435): > 100 µM
- TGI (HCT-15 colon): > 100 µM
- TGI (PC-3 prostate): > 100 µM
- TGI (SNB-19 CNS): > 100 µM
- TGI (A549 NSCLC): > 100 µM
- TGI (T-47D breast): 94 µM
- TGI (IGROV1 ovarian): > 100 µM
- TGI (SF-295 CNS): > 100 µM
- TGI (ACHN renal): > 100 µM
- TGI (SK-MEL-28 melanoma): > 100 µM
- TGI (K-562 leukemia): > 100 µM
- TGI (HOP-62 NSCLC): > 100 µM
- TGI (MOLT-4 leukemia): > 100 µM
- TGI (A498 renal): > 100 µM
- TGI (KM12 colon): > 100 µM
- TGI (MCF7 breast): > 100 µM
- TGI (SK-MEL-2 melanoma): > 100 µM
- TGI (HS 578T breast): > 100 µM

Structure (SMILES): COC(=O)[C@]1(C)CC[C@]2(C)CC[C@]3(C)C4[C@H]5Oc6c(cc7c(c6C)CCC6[C@@]7(C)CC[C@@]7(C)C8[C@](C)(CCC[C@@]8(C)C(=O)OC)CC[C@]67C)O[C@H]5c5c(cc6c(c5C)O[C@@]5(C)C7=CC=C8[C@@](C)(CC[C@@]9(C)[C@@H]%10C[C@](C)(C(=O)OC)CC[C@]%10(C)CC[C@]89C)C7=CC(=O)[C@@]5(O)O6)[C@]4(C)CC[C@@]3(C)C2C1 (stereo partly specified)
- TGI (NCI-H23 lung): > 12.5 µM
- TGI (UACC-257 melanoma): 6.52 µM
- TGI (SF-268 CNS): > 12.5 µM
- TGI (OVCAR-4 ovarian): > 12.5 µM
- TGI (HCT-116 colon): 6.63 µM
- TGI (UO-31 renal): 5.11 µM
- TGI (SK-MEL-5 melanoma): > 12.5 µM
- TGI (OVCAR-3 ovarian): 5.91 µM
- TGI (DU-145 prostate): > 12.5 µM
- TGI (UACC-62 melanoma): 4.61 µM
- TGI (CCRF-CEM leukemia): 4.9 µM
- TGI (MDA-N): 4.02 µM
- TGI (RXF 393 renal): 4.01 µM
- TGI (SW-620 colon): 6.69 µM
- TGI (SF-539 CNS): 5.41 µM
- TGI (NCI-H460 lung): > 12.5 µM
- TGI (MDA-MB-231 breast): 7.08 µM
- TGI (OVCAR-5 ovarian): > 12.5 µM
- TGI (HOP-92 NSCLC): 4.5 µM
- TGI (NCI/ADR-RES ovarian): > 12.5 µM
- TGI (HT29 colon): > 12.5 µM
- TGI (BT-549 breast): > 12.5 µM
- TGI (M14 melanoma): > 12.5 µM
- TGI (NCI-H226 lung): > 12.5 µM
- TGI (MALME-3M melanoma): > 12.5 µM
- TGI (EKVX NSCLC): 10.5 µM
- TGI (TK-10 renal): 6.07 µM
- TGI (786-0 renal): 3.59 µM
- TGI (COLO 205 colon): > 12.5 µM
- TGI (OVCAR-8 ovarian): 5.95 µM
- TGI (LOX IMVI melanoma): 4.56 µM
- TGI (CAKI-1 renal): > 12.5 µM
- TGI (SNB-75 CNS): 10.5 µM
- TGI (SK-OV-3 ovarian): > 12.5 µM
- TGI (NCI-H522 lung): 5.9 µM
- TGI (U251 CNS): 11.4 µM
- TGI (SN12C renal): 5.31 µM
- TGI (MDA-MB-435): 12.2 µM
- TGI (HCT-15 colon): 11.5 µM
- TGI (PC-3 prostate): > 12.5 µM
- TGI (SNB-19 CNS): > 12.5 µM
- TGI (A549 NSCLC): > 12.5 µM
- TGI (T-47D breast): 6.94 µM
- TGI (IGROV1 ovarian): 5.81 µM
- TGI (HL-60(TB) leukemia): > 12.5 µM
- TGI (SF-295 CNS): > 12.5 µM
- TGI (ACHN renal): > 12.5 µM
- TGI (SK-MEL-28 melanoma): > 12.5 µM
- TGI (K-562 leukemia): 11.6 µM
- TGI (HOP-62 NSCLC): > 12.5 µM
- TGI (MOLT-4 leukemia): 4.85 µM
- TGI (A498 renal): > 12.5 µM
- TGI (KM12 colon): > 12.5 µM
- TGI (MCF7 breast): 9.73 µM
- TGI (SK-MEL-2 melanoma): 6.14 µM
- TGI (HS 578T breast): > 12.5 µM

From PubChem BioAssay (NCI)
